Drawing on BindingDB's records for patent US9546164 (Genentech Inc, 2017), this text covers IC50 for 8 compounds.

The experiment addresses Sodium channel protein type 9 subunit alpha (Homo sapiens, UniProt Q15858). The experiment is described as follows: Radioligand Binding Assay (EP) (In vitro Assay). The note with it: pH 7.4; 25 °C.

Sodium channel protein type 9 subunit alpha, sequence (Q15858 whole entry): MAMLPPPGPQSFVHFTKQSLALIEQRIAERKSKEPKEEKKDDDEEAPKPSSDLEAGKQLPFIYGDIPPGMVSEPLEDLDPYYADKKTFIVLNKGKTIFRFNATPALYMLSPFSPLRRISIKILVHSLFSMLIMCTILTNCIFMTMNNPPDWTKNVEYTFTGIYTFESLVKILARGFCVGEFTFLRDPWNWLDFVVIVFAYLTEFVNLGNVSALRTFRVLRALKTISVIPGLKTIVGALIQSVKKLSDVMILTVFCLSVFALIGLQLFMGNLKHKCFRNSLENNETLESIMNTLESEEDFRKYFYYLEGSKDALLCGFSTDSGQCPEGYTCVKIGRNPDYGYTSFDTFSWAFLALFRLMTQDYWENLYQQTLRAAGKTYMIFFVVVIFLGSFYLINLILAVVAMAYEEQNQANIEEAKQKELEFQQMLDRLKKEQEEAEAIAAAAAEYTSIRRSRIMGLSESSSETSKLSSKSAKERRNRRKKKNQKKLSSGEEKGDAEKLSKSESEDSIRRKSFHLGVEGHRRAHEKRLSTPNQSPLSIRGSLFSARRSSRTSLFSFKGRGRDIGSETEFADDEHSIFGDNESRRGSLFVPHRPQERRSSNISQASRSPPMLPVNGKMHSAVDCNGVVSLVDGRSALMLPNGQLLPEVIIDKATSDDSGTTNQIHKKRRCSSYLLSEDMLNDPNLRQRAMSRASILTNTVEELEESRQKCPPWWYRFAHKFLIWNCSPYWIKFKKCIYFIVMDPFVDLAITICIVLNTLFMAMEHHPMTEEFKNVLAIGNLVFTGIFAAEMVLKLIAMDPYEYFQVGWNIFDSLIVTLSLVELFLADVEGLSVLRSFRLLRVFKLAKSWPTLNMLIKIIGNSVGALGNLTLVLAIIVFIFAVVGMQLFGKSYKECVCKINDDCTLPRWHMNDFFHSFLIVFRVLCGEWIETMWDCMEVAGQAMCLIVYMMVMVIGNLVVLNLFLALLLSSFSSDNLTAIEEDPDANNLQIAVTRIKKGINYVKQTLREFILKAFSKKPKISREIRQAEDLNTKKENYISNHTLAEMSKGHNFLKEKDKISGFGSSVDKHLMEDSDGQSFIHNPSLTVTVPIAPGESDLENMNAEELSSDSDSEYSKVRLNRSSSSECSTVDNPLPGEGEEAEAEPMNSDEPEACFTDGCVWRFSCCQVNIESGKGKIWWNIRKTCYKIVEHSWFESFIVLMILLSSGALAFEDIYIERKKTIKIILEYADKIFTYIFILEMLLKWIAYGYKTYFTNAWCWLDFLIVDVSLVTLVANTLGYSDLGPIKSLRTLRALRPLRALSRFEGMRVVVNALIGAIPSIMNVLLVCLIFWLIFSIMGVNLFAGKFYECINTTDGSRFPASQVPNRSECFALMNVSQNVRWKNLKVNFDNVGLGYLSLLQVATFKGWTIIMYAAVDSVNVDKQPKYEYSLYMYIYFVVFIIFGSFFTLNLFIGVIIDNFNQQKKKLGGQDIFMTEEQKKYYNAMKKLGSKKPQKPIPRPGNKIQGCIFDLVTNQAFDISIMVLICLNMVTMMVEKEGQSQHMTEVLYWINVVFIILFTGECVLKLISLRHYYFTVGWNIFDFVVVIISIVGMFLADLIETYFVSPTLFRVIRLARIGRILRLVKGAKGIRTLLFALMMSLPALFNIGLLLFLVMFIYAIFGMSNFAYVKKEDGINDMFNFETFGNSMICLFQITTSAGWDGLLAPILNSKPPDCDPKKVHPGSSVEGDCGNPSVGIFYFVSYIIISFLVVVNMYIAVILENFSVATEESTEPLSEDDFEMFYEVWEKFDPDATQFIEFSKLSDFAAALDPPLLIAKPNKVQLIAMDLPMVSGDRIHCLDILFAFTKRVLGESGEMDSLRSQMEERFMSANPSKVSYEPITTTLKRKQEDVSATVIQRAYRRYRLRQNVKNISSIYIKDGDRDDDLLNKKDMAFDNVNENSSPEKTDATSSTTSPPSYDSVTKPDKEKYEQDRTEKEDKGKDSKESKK
Method: Binding of this radioligand was preformed in 5 mL borosilicate glass test tubes at room temperature. […] Non-specific binding was determined in the presence of 1 μM unlabelled compound. […] In 360 μL, membranes were incubated with 100 pM [3H]compound and increasing concentrations of Test Compound. Non-specific binding was defined in the presence of 1 μM unlabelled compound. Reactions were transferred and filtered through 96-well glass fiber/C filter plates presoaked with 0.5% polyethylene imine. […] Bound radioactivity was determined by liquid scintillation counting.

Take `CC(c1ccc(OC(F)(F)F)cc1)N1CC(COc2cc(F)c(C(=O)NS(C)(=O)=O)cc2C2CC2)C1` (stereo not drawn) [US9546164, 157]: the IC50 was 35.1 nM.
To `CC(C)(C)OC(=O)N1CCC(COc2cc(F)c(C(=O)NS(C)(=O)=O)cc2Cl)CC1` [US9546164, 78] belongs 490 nM.
Then `CS(=O)(=O)NC(=O)c1cc(C2CC2)c(OCC2(F)CCN(Cc3cc(Cl)ccc3C(F)(F)F)CC2)cc1F` [US9546164, 348], with 4.5 nM.
To `CS(=O)(=O)NC(=O)c1cc(C2CC2)c(OCC2CCN(S(=O)(=O)c3cc(F)c(F)c(F)c3)CC2)cc1F` [US9546164, 380] belongs 40.9 nM; to `CS(=O)(=O)NC(=O)c1cc(C2CC2)c(OCC2(F)CN(C(c3ccccc3)c3ccccc3)C2)cc1F` [US9546164, 67], 7.9 nM.
In turn, `O=C(NS(=O)(=O)C1CC1)c1cc(C2CC2)c(OCC2CCN(S(=O)(=O)c3ccc4ccccc4c3)CC2)cc1F` [US9546164, 389] displayed an IC50 of 8.8 nM.
Then `CC1(COc2cc(F)c(C(=O)NS(C)(=O)=O)cc2C2CC2)CCN(Cc2cc(C(F)(F)F)ccc2C(F)(F)F)CC1` [US9546164, 107], with 2.1 nM; and `O=C(NS(=O)(=O)N1CCC1)c1cc(C2CC2)c(OCC2CC3CCC(C2)N3C(c2ccccc2)c2ccccc2)cc1F` (stereo not drawn) [US9546164, 49], with 4.3 nM.

What is called IC50 is the concentration at which inhibition is half-maximal.
